Assay [1] can be described thus: Inhibition of ABL T315I mutant in mouse BAF3 cells assessed as reduction in cell viability after 72 hrs by MTT assay. (In general: Tetrazolium dyes change colour on reduction, which living cells bring about.)
Assay [2] in a line: Inhibition of ABL in mouse BAF3 cells assessed as reduction in cell viability after 72 hrs by MTT assay.

The IC50 is the midpoint of a concentration-inhibition curve.

For the molecule `C=CC(=O)Nc1ccc(Oc2nc(Nc3ccc(N4CCN(C)CC4)cc3OC)ncc2Cl)cc1`, the IC50 in assay [1] amounted to 7.7 µM; in assay [2] it was 6.39 µM.
On to `COc1cc(N2CCN(C)CC2)ccc1Nc1ncc(Cl)c(Oc2ccc([N+](=O)[O-])cc2)n1`, for which the IC50 in assay [1] stood at 6.89 µM; in assay [2], 3.48 µM.
The like results for `COc1cc(N2CCN(C)CC2)ccc1Nc1ncc(Cl)c(Oc2ccccc2NC(=O)CCOCc2ccccc2)n1` were, in that order, 3.06 µM and 3.12 µM.
For `COc1cc(N2CCN(C)CC2)ccc1Nc1ncc(Cl)c(Oc2ccccc2N)n1` the same measures were 5.74 µM and 6.73 µM.
For `COc1cc(N2CCN(C)CC2)ccc1Nc1ncc(Cl)c(Oc2cccc(NC(=O)CO)c2)n1` the same measures were 1.12 µM and 1.48 µM.
Regarding `COc1cc(N2CCN(C)CC2)ccc1Nc1ncc(Cl)c(Oc2ccc(NC(=O)CCOCc3ccccc3)cc2)n1`, the IC50 in assay [1] was determined as 1.5 µM; in assay [2], 1.43 µM.
`COc1cc(N2CCN(C)CC2)ccc1Nc1ncc(Cl)c(Oc2ccccc2NC(=O)COCc2ccccc2)n1`: the IC50 came to 3.5 µM in assay [1] and 1.37 µM in assay [2].
`COc1cc(N2CCN(C)CC2)ccc1Nc1ncc(Cl)c(Oc2ccccc2N=C=S)n1`: the IC50 turned out to be 8.99 µM in assay [1] and 5.56 µM in assay [2].
For `C=CC(=O)Nc1ccccc1Oc1nc(Nc2ccc(N3CCN(C)CC3)cc2OC)ncc1Cl`, the figures for the IC50 in assay [1] and in assay [2] were 2.37 µM and 2.92 µM, respectively.
On to `COc1cc(N2CCN(C)CC2)ccc1Nc1ncc(Cl)c(Oc2ccc(N=C=S)cc2)n1`, for which the figures for the IC50 in assay [1] and in assay [2] were 9.53 µM and 7.5 µM, respectively.
As for `COc1cc(N2CCN(C)CC2)ccc1Nc1ncc(Cl)c(Oc2cccc(NC(=O)CCOCc3ccccc3)c2)n1`, the IC50 was determined as 2.49 µM in assay [1] and 2.47 µM in assay [2].
Turning to `C=CC(=O)Nc1cccc(Oc2nc(Nc3ccc(N4CCN(C)CC4)cc3OC)ncc2Cl)c1`, the IC50 in assay [1] came to 16.3 µM; in assay [2] it was 9.69 µM.
With `COc1cc(N2CCN(C)CC2)ccc1Nc1ncc(Cl)c(Oc2ccc(N=[N+]=[N-])cc2)n1`, the 50% inhibitory concentration (IC50) in assay [1] is 15.1 µM; in assay [2], 13.1 µM.
On to `COc1cc(N2CCN(C)CC2)ccc1Nc1ncc(Cl)c(Oc2cccc(NC(C)=O)c2)n1`, for which the results for the IC50 in assay [1] and in assay [2] were 5.56 µM and 2.91 µM, respectively.
As for `COc1cc(N2CCN(C)CC2)ccc1Nc1ncc(Cl)c(Oc2cccc(N)c2)n1`, the IC50 in assay [1] amounted to 1.96 µM; in assay [2], 1.9 µM.
With `COc1cc(N2CCN(C)CC2)ccc1Nc1ncc(Cl)c(Oc2cccc(NC(=O)COCc3ccccc3)c2)n1`, the IC50 in assay [1] was 2.87 µM; in assay [2], 2.44 µM.
Consider `COc1cc(N2CCN(C)CC2)ccc1Nc1ncc(Cl)c(Oc2ccc(NC(=O)/C=C/CN(C)C)cc2)n1`, for which the IC50 in assay [1] is 3.41 µM; in assay [2], 4.72 µM.
With `COc1cc(N2CCN(C)CC2)ccc1Nc1ncc(Cl)c(Oc2ccccc2NC(=O)/C=C/CN(C)C)n1`, the IC50 in assay [1] amounted to 8.12 µM; in assay [2] it was 9.1 µM.
Take `COc1cc(N2CCN(C)CC2)ccc1Nc1ncc(Cl)c(Oc2cccc(N=[N+]=[N-])c2)n1`: the IC50 in assay [1] is 4.67 µM; in assay [2] it was 3.87 µM.
For `COc1cc(N2CCN(C)CC2)ccc1Nc1ncc(Cl)c(Oc2ccccc2N=[N+]=[N-])n1` the same measures were 1.33 µM and 1.45 µM.
On to `COc1cc(N2CCN(C)CC2)ccc1Nc1ncc(Cl)c(Oc2ccccc2NC(=O)CCO)n1`, for which the IC50 in assay [1] was 3.86 µM; in assay [2], 2.12 µM.
The like results for `COc1cc(N2CCN(C)CC2)ccc1Nc1ncc(Cl)c(Oc2ccccc2NC(C)=O)n1` were, in that order, 4.73 µM and 8.49 µM.
The like results for `COc1cc(N2CCN(C)CC2)ccc1Nc1ncc(Cl)c(Oc2ccc(NC(=O)CCO)cc2)n1` were, in that order, 3.35 µM and 3.25 µM.
The like results for `COc1cc(N2CCN(C)CC2)ccc1Nc1ncc(Cl)c(Oc2ccc(NC(=O)CO)cc2)n1` were, in that order, 2.74 µM and 6.68 µM.
Regarding `COc1cc(N2CCN(C)CC2)ccc1Nc1ncc(Cl)c(Oc2ccccc2NC(=O)CO)n1`, the IC50 turned out to be 4.18 µM in assay [1] and 2.07 µM in assay [2].
Regarding `COc1cc(N2CCN(C)CC2)ccc1Nc1ncc(Cl)c(Oc2cccc(NC(=O)CCO)c2)n1`, the IC50 in assay [1] is 1.39 µM; in assay [2], 2.07 µM.
`COc1cc(N2CCN(C)CC2)ccc1Nc1ncc(Cl)c(Oc2ccc(NC(=O)COCc3ccccc3)cc2)n1`: the IC50 worked out at 3.62 µM in assay [1] and 2.11 µM in assay [2].
As for `COc1cc(N2CCN(C)CC2)ccc1Nc1ncc(Cl)c(Oc2ccc(N)cc2)n1`, the IC50 in assay [1] is 5.47 µM; in assay [2], 2.81 µM.
Regarding `COc1cc(N2CCN(C)CC2)ccc1Nc1ncc(Cl)c(Oc2ccccc2[N+](=O)[O-])n1`, the IC50 is 11.6 µM in assay [1] and 6.81 µM in assay [2].
Consider `COc1cc(N2CCN(C)CC2)ccc1Nc1ncc(Cl)c(Oc2cccc(N=C=S)c2)n1`, for which the figures for the IC50 in assay [1] and in assay [2] were 4.99 µM and 8.41 µM, respectively.
The like results for `COc1cc(N2CCN(C)CC2)ccc1Nc1ncc(Cl)c(Oc2cccc(NC(=O)/C=C/CN(C)C)c2)n1` were, in that order, 6.02 µM and 7.02 µM.
Take `COc1cc(N2CCN(C)CC2)ccc1Nc1ncc(Cl)c(Oc2ccc(NC(C)=O)cc2)n1`: the IC50 in assay [1] stood at 2.89 µM; in assay [2], 2.08 µM.
With `COc1cc(N2CCN(C)CC2)ccc1Nc1ncc(Cl)c(Oc2cccc([N+](=O)[O-])c2)n1`, the half-maximal inhibitory concentration (IC50) in assay [1] came out at 9.15 µM; in assay [2], 6.8 µM.

Values taken from BindingDB's records for doi:10.1016/j.bmcl.2017.09.048 (St. John'S University, 2017).
